“And” between values parts separate entries of the source, which are not always exact repeats. Identical values can stand only once.
System: pulmonary fibrosis induced by bleomycin in C57/BL6 mice
Test: Model of pulmonary fibrosis induced by bleomycin in mice (bronchoalveolar lavage fluid)
Type: in vivo, mouse
Protocol: In the study, female, young and healthy C57/BL6 mice were used, of approximately 9-10 weeks of age at the start of the experimental phase. The choice of C57/BL6 mice was because this is the most commonly used mouse strain in the pulmonary fibrosis model.
Three experimental groups were used in the study:
Group A: (positive control): Bleomycin+Vehicle (PBS) n=10
Group B: Bleomycin+2,4,6-triiodophenol micronized 10 mg/kg q.d. (every 12 hours) n=10
Group C: No treatment (healthy animals) n=1
Where n is the number of animals in each experimental group.
The test item was administered as a suspension in 0.25% methylcellulose (the vehicle). The positive control group received the vehicle.
Both the test item and the vehicle were administered orally in a volume of 5 ml/kg twice per day (q.d.) every 12 hours.
On day 0 pulmonary fibrosis was induced by intratracheal instillation of 0.075 units of bleomycin in 50 μl of sterile saline solution into the lungs of each animal. Immediately afterwards 150 μl of air were introduced intratracheally into each mouse to aid in the pulmonary distribution of the bleomycin.
On day 7 after bleomycin administration, treatment with the test item or vehicle was commenced by oral administration. Treatment was carried out twice per day (every 12 hours) and was continued for 15 days.
On day 21 after bleomycin administration a bronchoalveolar lavage was carried out on all animals. To this effect, mice were anaesthetized with sodium pentobarbital and the trachea of each animal was cannulated. Afterwards 1 ml of PBS at 37° C. was instilled into each lung and re-aspirated back with the use of a syringe. This process was repeated 5 times, each time collecting the aspirated liquid in a vial and combining the liquid obtained from the 5 lavages. The recovered volume of bronchoalveolar lavage was adjusted for all animals to 5 mls.
Once the bronchoalveolar lavage fluid had been obtained, a sample was taken in order to determine cellular viability by trypan blue exclusion. Additionally, a sample of lavage fluid was kept frozen (−20° C.) for subsequent determination of CCL5 and TGF-β concentration by ELISA.
The remaining bronchoalveolar lavage fluid was spun in a cytocentrifuge and stained (Diff-Quick) in order to carry out a differential cell count.
All animals were weighed on arrival at the laboratory and each day during the treatment phase of the experimental period until the end of the study.
For each animal cell viability in bronchoalveolar lavage fluid was determined by Trypan Blue exclusion, and a differential cell count was done by staining cytocentrifuged samples with Diff-Quick stain (this was done on a population of approximately 200 cells per sample). Additionally, the concentration of CCL5 and TGF-β were also determined in bronchoalveolar lavage fluid samples by the use of commercially available ELISA kits specific for mice chemokines from R&D Systems.
The statistical significance of the results was evaluated by use of the statistical package Graphpad Instat 3.
All comparisons were evaluated by the use of Student's t-test (two-way, unpaired data). Values of P≦0.05 were taken as significant.

[1] = 10 mg/kg oral twice per day, starting 7 days after bleomycin
[2] = group mean, day 21, 10 mg/kg oral twice per day from day 7
[3] = group mean, day 21 after bleomycin, 10 mg/kg oral twice per day from day 7
[4] = individual mice, day 21, 10 mg/kg oral twice per day from day 7, listed as Group B, 10 mg/kg

Oc1c(I)cc(I)cc1I [Micronized, 2,4,6-triiodophenol]
effect on bleomycin-induced increase of CCL5 and TGFβ in bronchoalveolar lavage fluid (in words) [1]: very significant inhibition
effect on bleomycin-induced lymphocyte and neutrophil percentages in bronchoalveolar lavage fluid (in words) [1]: reduction of the bleomycin-induced increase in lymphocytes and neutrophil percentages
CCL5 concentration in BALF, mean [2]: 6.952 pg/mL
TGFβ concentration in BALF, mean [2]: 40.731 pg/mL
Lymphocytes, differential cell count in bronchoalveolar lavage fluid (%) [3]: 34.35%
Macrophages, differential cell count in bronchoalveolar lavage fluid (%) [3]: 60.33%
Neutrophils, differential cell count in bronchoalveolar lavage fluid (%) [3]: 5.32%
CCL5 concentration in BALF, individual animals [4]: 1.887 pg/mL and 3.041 pg/mL and 6.426 pg/mL and 24.658 pg/mL and 3.426 pg/mL and 2.272 pg/mL
TGFβ concentration in BALF, individual animals [4]: 6.319 pg/mL and 8.389 pg/mL and 26.335 pg/mL and 38.069 pg/mL and 121.586 pg/mL and 9.770 pg/mL and 74.651 pg/mL
